# Experimental data published in PubChem BioAssay AID434956 (The Scripps Research Institute Molecular Screening Center, 2010).
# Activity calls are given as the source filed them. How the calls were made is not given here.
# System: IEC-6 cytotoxicity, ATP luminescence
# Assay: cytotoxicity in IEC-6 intestinal cells, late-stage follow-up, cytotoxicity control for KLF5 inhibitor project, cell-based, luminescence, dose response, round 1 (AID 434956)
row,Compound,IC50
1,Nc1cc2nn(-c3ccccc3)nc2cc1Cl,> 39.8 µM (inactive)
2,CC(C)(C)c1ccc(-c2noc(CCCC(=O)Nc3ccccc3Cl)n2)cc1,> 39.8 µM (inactive)
3,Cc1nc(NC(=O)c2ccc3ncsc3c2)sc1C(=O)N(C)C,> 39.8 µM (inactive)
4,Cc1cccc(NC(=O)CCc2nc(-c3ccc(C(C)(C)C)cc3)no2)c1,> 39.8 µM (inactive)
5,CC(C)C(=O)Nc1ccc2nn(-c3ccc(Cl)cc3)nc2c1,> 39.8 µM (inactive)
6,CC(C)(C)c1ccc(-c2noc(CCc3nc4ccccc4[nH]3)n2)cc1,31.8 µM (inactive)
7,CC(C)(C)C(=O)Nc1ccc2nn(-c3ccccc3)nc2c1,> 39.8 µM (inactive)
8,COc1ccc(-n2nc3cc(C)c(NC(=O)C(C)C)cc3n2)cc1,> 39.8 µM (inactive)
9,Cc1ccc(-n2nc3cc(Cl)c(NC(=O)c4cccnc4)cc3n2)cc1,17.8 µM (inactive)
10,O=C(Nc1cc2nn(-c3ccccc3)nc2cc1Cl)C1COc2ccccc2C1 (configuration not stated),> 39.8 µM (inactive)
11,CC(=O)Nc1ccc2nc(Nc3nc4ccc(F)cc4s3)sc2c1,14.7 µM (inactive)
12,CC(C)(C)c1ccc(-c2noc(CCC(=O)Nc3ccc(N4CCOCC4)nc3)n2)cc1,> 39.8 µM (inactive)
13,CC1(C)CC(=O)c2sc(NC(=O)c3ccc4ncsc4c3)nc2C1,> 39.8 µM (inactive)
14,CC(C)(C)C(=O)Nc1ccc2nn(-c3ccc(F)cc3)nc2c1,> 39.8 µM (inactive)
15,O=C(COc1ccccc1)Nc1ccc2nn(-c3cccc(Cl)c3)nc2c1,> 39.8 µM (inactive)
16,CC(C)(C)c1ccc(-c2coc(CCC(=O)Nc3ccccn3)n2)cc1,> 39.8 µM (inactive)
17,Cc1ccc(OCC(=O)Nc2ccc3nn(-c4cccc(C(F)(F)F)c4)nc3c2)cc1C,> 39.8 µM (inactive)
18,CCNC(=O)c1sc(NC(=O)c2ccc3ncsc3c2)nc1C,> 39.8 µM (inactive)
19,CC(C)(C)c1ccc(-c2noc(CCC(=O)Nc3ccccn3)n2)cc1,> 39.8 µM (inactive)

row,Compound,IC50
1,CC(C)(C)c1ccc(-c2noc(CCC(=O)NCc3ccccc3)n2)cc1,24.1 µM (inactive)
2,O=C(Cc1ccccc1)Nc1cc2nn(-c3ccccc3)nc2cc1Cl,> 39.8 µM (inactive)
3,CC(NC(=O)c1ccccc1)c1nc(-c2ccc(C(C)(C)C)cc2)no1 (configuration not stated),41.4 µM (inactive)
4,CN(C)C(=O)c1ccc2nc(Nc3nc4ccc(F)cc4s3)sc2c1,15.7 µM (inactive)
5,CS(=O)(=O)c1ccc2nc(Nc3nc4ccc(F)cc4s3)sc2c1,19.1 µM (inactive)
6,CCOc1ccc(NC(=O)CCc2nc(-c3ccc(C(C)(C)C)cc3)no2)cc1,> 39.8 µM (inactive)
7,O=C(Nc1cc2nn(-c3ccccc3)nc2cc1Cl)C1CC1,> 39.8 µM (inactive)
8,COc1ccc(-n2nc3ccc(NC(=O)C4CCN(S(=O)(=O)c5ccc(Cl)cc5)CC4)cc3n2)cc1,31.2 µM (inactive)
9,CC(=O)c1sc(NC(=O)c2ccc3ncsc3c2)nc1-c1ccccc1,> 39.8 µM (inactive)
10,CC(=O)c1sc(NC(=O)c2ccc3ncsc3c2)nc1C,> 39.8 µM (inactive)
11,COc1ccc2nc(Nc3nc4ccc(F)cc4s3)sc2c1,> 39.8 µM (inactive)
12,CCOc1ccc2nc(Nc3nc4ccc(F)cc4s3)sc2c1,> 39.8 µM (inactive)
13,Cc1ccc(-n2nc3ccc(NC(=O)COc4ccc(C)c(C)c4)cc3n2)cc1,> 39.8 µM (inactive)
14,COc1ccc(-n2nc3ccc(NC(=O)C(C)(C)C)cc3n2)cc1,> 39.8 µM (inactive)
15,CCNC(=O)c1ccc2nc(Nc3nc4ccc(F)cc4s3)sc2c1,14.7 µM (inactive)
16,CC(C)c1ccc2nc(Nc3nc4ccc(F)cc4s3)sc2c1,> 39.8 µM (inactive)
17,CC(C)(C)c1ccc(-c2noc(CCC(=O)Nc3ccccc3)n2)cc1,> 39.8 µM (inactive)
18,CC(C)(C)c1ccc(-c2noc(CCC(=O)Nc3ccncc3)n2)cc1,25.6 µM (inactive)
